Laboratory results taken from patent US12201848B2, “Device and methods for use in removal of bio-film and treatment of halitosis” (priority 2016, dated 2025).
“Also recorded” adds a separate entry of the source.

Assays:
P. gingivalis ATCC 33277 = test: Lethal photosensitization of P. Gingivalis (colony count); assay type: cell-based
Method: Suitable stain dosages for providing lethal sensitization of oral pathogens are determined in vitro by the following procedure. An objective is to determine the minimum duration of light exposure and minimum agent dilution required to achieve at least a 50% reduction in bacteria counts. Experimental tests are performed on two common pathogens using a continuously working, high intensity, red filtered halogen lamp. Red light from the filtered halogen lamp is transmitted through a flexible light guide to radiate downwardly onto petri dishes containing samples of live bacteria of species Porphyromonas Gingivalis and Prevotella Intermedia using the protocols described below. Bacteria. Prevoltella Intermedia is isolated from patient sample material, identified in the laboratory using standard diagnostic test systems (Remel Inc., Lenexa, Kans., USA) and is maintained by twice-weekly subculture in thioglycollate medium (Becton Dickinson and Co, Sparks, Md., USA). P. gingivalis ATCC 33277 obtained from Remel Inc., is maintained by a twice-weekly subculture on CDC anaerobe blood agar (Becton Dickinson and Co, USA) and in thioglycollate medium (Becton Dickinson and Co, USA). Light Source. […] The light output power density measured at 3 cm distance from the end of the light guide with filter is about 50 milliwatts/cm2. […]

[1] = tested on: Porphyromonas Gingivalis and Prevotella Intermedia; test: Lethal photosensitization of oral pathogens by methylene blue and red-filtered halogen light (colony count); assay type: cell-based; details: for Percent of Living Bacteria: mean of both species +/- SD
Method: Suitable stain dosages for providing lethal sensitization of oral pathogens are determined in vitro by the following procedure. An objective is to determine the minimum duration of light exposure and minimum agent dilution required to achieve at least a 50% reduction in bacteria counts. Experimental tests are performed on two common pathogens using a continuously working, high intensity, red filtered halogen lamp. Red light from the filtered halogen lamp is transmitted through a flexible light guide to radiate downwardly onto petri dishes containing samples of live bacteria of species Porphyromonas Gingivalis and Prevotella Intermedia using the protocols described below. Bacteria. Prevoltella Intermedia is isolated from patient sample material, identified in the laboratory using standard diagnostic test systems (Remel Inc., Lenexa, Kans., USA) and is maintained by twice-weekly subculture in thioglycollate medium (Becton Dickinson and Co, Sparks, Md., USA). P. gingivalis ATCC 33277 obtained from Remel Inc., is maintained by a twice-weekly subculture on CDC anaerobe blood agar (Becton Dickinson and Co, USA) and in thioglycollate medium (Becton Dickinson and Co, USA). Light Source. The source for light energy is a continuously working, high intensity halogen lamp having a built-in 250-Watt quartz halogen light source, model I-250 supplied by Medithon, New York, N.Y., USA. Such lights are customarily employed for ear, nose or throat procedures. The light is transmitted through a flexible light guide and filtered to maintain maximum energy output at wavelengths in the vicinity of about 650 nm using a broadband red filter (Edmund Optics Inc., Barrington, N.J., USA). The light output power density measured at 3 cm distance from the end of the light guide with filter is about 50 milliwatts/cm2. Photosensitizer. […] Lethal photosensitization of P. Intermedia. Petri dishes containing CDC anaerobe blood agar (Becton Dickinson and Co, USA) are inoculated with 0.5 ml of broth containing 5×10^5 CFU/ml and left closed at room temperature for about 10 minutes to let the broth penetrate the agar media. […] Only plates with concentrations of 0.01%, and 0.025% are used in the experiment with 20 min light exposure. Four plates are used for each experiment. […] The controls are covered to protect them from ambient light. […] A total of 108 subcultures is used for the experiment. Plates are incubated in anaerobic conditions in the jars using anaerobic pack kits (BBL GasPak Plus, Becton Dickinson and Co, Sparks, Md., USA) at 37° C. for 24 hours. Samples of the resulting culture growth are taken from each plate with sterile […] standard loop, dispensed in 1 ml of sterile NS and placed at the same media. Cultures are incubated at anaerobic conditions at 37° C. for another 24 hours, and after that the resulting colony count is performed on each plate. Lethal photosensitization of P. Gingivalis. Serial dilutions of the P. gingivalis culture are prepared from the initial culture preserved on plates using 1:L sterile standard loop (Becton Dickinson and Co, USA) and sterile NS. A Vitek calorimeter (Hach Company, Loveland, Colo., USA) is used to achieve a final concentration of about 5×10^3 CFU/ml from an initial 0.5 standard McFarland suspension of 10^8 CFU/ml. Plates containing CDC anaerobic blood agar (Becton Dickinson and Co, USA) are inoculated with the resulting suspension using sterile 10:L standard loops (Becton Dickinson and Co, USA). […] Plates are also incubated at 37° C. in the tightly closed jars supplied with anaerobic pack kits (BBL GasPak Plus, Becton Dickinson and Co, USA) for 24 hours, and the resulting colony count is performed on each plate.

CN(C)c1ccc2nc3ccc(=[N+](C)C)cc-3sc2c1 [methylene blue]
bacterial killing without light exposure (P. gingivalis ATCC 33277; methylene blue 0.01%, no light, P. gingivalis culture): statistically significant bacterial killing | bactericidal effect on P. gingivalis (P. gingivalis ATCC 33277; methylene blue 0.1%): bactericidal effect | reduction of bacteria without exposure to light ([1]; 0.05% methylene blue alone): insignificant | difference between exposure for 10 and 20 minutes ([1]; either species, any concentration of methylene blue): No statistically significant difference | killing of bacteria without halogen light ([1]; methylene blue 0.001% or 0.025%, without halogen light): nor concentrations of methylene blue of 0.001% or 0.025%, without halogen light, appeared to be effective in killing bacteria | bactericidal effect with red-filtered light ([1]; methylene blue 0.01% or higher, exposure less than 10 minutes, accumulated energy 30 J/cm2, both species): bactericidal effect | Percent of Living Bacteria ([1]; methylene blue 0.01%, exposure to red light 0): 70 +/− 11% | Percent of Living Bacteria ([1]; methylene blue 0.01%, red light 1 min): 73 +/− 6% | Percent of Living Bacteria ([1]; methylene blue 0.01%, red light 5 min): 69 +/− 7% | Percent of Living Bacteria ([1]; methylene blue 0.01%, red light 10 min): 55 +/− 6% | Percent of Living Bacteria ([1]; methylene blue 0.01%, red light 20 min): 51 +/− 4% | Percent of Living Bacteria ([1]; methylene blue 0.025%, exposure to red light 0): 75 +/− 14% | reduction in bacteria counts ([1]; methylene blue 0.025%, light exposure 5 min): Significant reduction in bacteria counts | Percent of Living Bacteria ([1]; methylene blue 0.025%, red light 1 min): 67 +/− 4% | Percent of Living Bacteria ([1]; methylene blue 0.025%, red light 5 min): 47 +/− 6% | Percent of Living Bacteria ([1]; methylene blue 0.025%, red light 10 min): 48 +/− 8% | Percent of Living Bacteria ([1]; methylene blue 0.025%, red light 20 min): 49 +/− 5% | killing with duration of red light ([1]; methylene blue 0.025%, time intervals 5 and 10 min): statistically significant increased killing with duration | reduction in bacteria counts ([1]; methylene blue 0.05% and higher, light exposure 1 min): Significant reduction in bacteria counts | Percent of Living Bacteria ([1]; methylene blue 0.05%, exposure to red light 0): 68 +/− 12% | Percent of Living Bacteria ([1]; methylene blue 0.05%, red light 1 min): 53 +/− 10% | Percent of Living Bacteria ([1]; methylene blue 0.05%, red light 5 min): 32 +/− 7% | Percent of Living Bacteria ([1]; methylene blue 0.05%, red light 10 min): 32 +/− 9% | killing with duration of red light ([1]; methylene blue 0.05%, time intervals 1 min, 5 min and 10 min): statistically significant increased killing with duration | bacterial count reduction ([1]; methylene blue 0.075% and 0.1%, light exposure 1 min, both cultures): statistically significant bacterial count reduction | bactericidal effect without light exposure ([1]; methylene blue 0.075% and 0.1%, no red light): significant bactericidal effect; also recorded: significantly bactericidal | Percent of Living Bacteria ([1]; methylene blue 0.075%, exposure to red light 0): 51 +/− 10% | Percent of Living Bacteria ([1]; methylene blue 0.075%, red light 1 min): 45 +/− 5% | Percent of Living Bacteria ([1]; methylene blue 0.075%, red light 5 min): 26 +/− 5% | Percent of Living Bacteria ([1]; methylene blue 0.075%, red light 10 min): 25 +/− 5% | Percent of Living Bacteria ([1]; methylene blue 0.1%, exposure to red light 0): 35 +/− 9% | Percent of Living Bacteria ([1]; methylene blue 0.1%, red light 1 min): 39 +/− 12% | Percent of Living Bacteria ([1]; methylene blue 0.1%, red light 5 min): 28 +/− 9% | Percent of Living Bacteria ([1]; methylene blue 0.1%, red light 10 min): 24 +/− 4%
